Laboratory results: US8318801B2, “Cinnamic compounds and derivatives therefrom for the inhibition of histone deacetylase” (Naturewise Biotech & Medicals Corporation, priority 2009, dated 2012)
“Also recorded” adds a separate entry of the source.

How the values were obtained:
Assay type in all cases: cell-based
[1] = tested on: Human breast cancer MCF-7 cells; experiment: Inhibition of cancer cell growth and change of morphology
Description: (§1) Three cancer cell lines, Rat C6 giloma cells, Human breast cancer MCF-7 cells, and Human lung cancer A549 cells, were cultured in Dulbecco's modified Eagle's medium (DMEM; Gibco) containing 10% fetal bovine serum (FBS) and 1% penicillin/streptomycin. All three cell lines were maintained at 37° C. in a humidified atmosphere of 95% air and 5% CO2. For the experiments, the cells were seeded in 6-well plates. After 24 hours, the cells were treated with different concentrations of the various compounds.
(§2) Five cancer cell lines, Rat C6 giloma cells, Human breast cancer MCF-7 cells, Human glioma Hs683 cells, Human glioblastoma 05-MG cells, and Human lung cancer A549 cells, were cultured in Dulbecco's modified Eagle's medium (DMEM; Gibco) containing 10% fetal bovine serum (FBS) and 1% penicillin/streptomycin, and were kept at 37° C. in a humidified atmosphere of 95% air and 5% CO2. Human breast cancer. MDA-MB-231 cells were cultured in L-15 medium (Gibco) containing 10% fetal bovine serum (FBS), 1% penicillin/streptomycin, and 2 mM glutamine, and were maintained at 37° C. in a humidified atmosphere of 95% air and 0% CO2. For these experiments, the cells were seeded in 6-well plates or a 60-mm dish. After 24 hours, the cells were treated with different concentrations of the various compounds. […] Human glioblastoma 05-MG cells were treated with NBM-C-BCX-OS01 (1.0, 2.0, 4.0 μg/mL) and NBM-C-BMX-OS01 (1.0, 2.0, 4.0 μg/mL) for 72 hours (see FIG. 5(e)). […] The results were counted by a trypan blue exclusion assay (see FIG. 6(b)).

Rat C6 glioma cells = experiment: as above; settings: for inhibition of cell growth: Rat C6 glioma cells
Description: as §1, §2

[2] = tested on: acetyl-Histone H3 in Human lung cancer A549 cells; experiment: Immunostaining of HDAC associated proteins; settings: 7.5 μg/mL, 6 hrs (FIG. 3(c))
Description: (§3) Rat C6 glioma cells, Human breast cancer MCF-7 cells, and Human lung cancer A549 cells were seeded in 6-well plates. After 24 hrs of incubation in medium+10 BSA, Human breast cancer MCF-7 cells were treated with NBM-HB-OS01 (10.0 μg/mL) and vorinostat (SAHA, 5 μM) for 24 hours. Rat C6 glioma cells were treated with NBM-C-BX-OS01 (7.5 μg/mL) and vorinostat (SAHA, 5 μM) for 6 hours. Human lung cancer A549 cells were treated with NBM-C-BA-OS01 (7.5 μg/mL) and vorinostat (SAHA, 5 μM) for 6 hours. The treated cells were fixed in 80% methanol for 30 minutes and then washed 3 times with PBS solution. Cells were permeabilized with 0.3% Triton X-100 for 30 minutes, and then blocked in 10% fetal bovine serum (FBS) in PBS-T (0.1% Twin 20 in PBS) for 1 hour. The treated cells were detected with primary antibody against acetyl-Histone H3, acetyl-tubulin, and Gelsolin.

[3] = tested on: Human lung cancer A549 cells; experiment: Inhibition of cancer cell growth
Description: as §1, §2

[4] = tested on: acetyl-tubulin in Rat C6 glioma cells; experiment: Immunostaining of HDAC associated proteins; settings: 7.5 μg/mL, 6 hrs (FIG. 2(e))
Description: as §3

[5] = tested on: acetyl-Histone H3, acetyl-Histone H4, acetyl-tubulin, p21 in Human breast cancer MCF-7 cells; experiment: Immunoblotting of hyperacetylated histone, tubulin and p21; settings: 10 μg/mL (7.5 μg/mL elsewhere in the source) for 1, 2, 3 and 4 hrs (FIG. 2(d))
Description: (§4) Rat C6 glioma cells and Human breast cancer MCF-7 cells were seeded 5×10^5 cells in a 60-mm dish or 1×10^6 cells in a 100-mm dish. After 24 hours, Rat C6 glioma cells were treated with various concentrations of NBM-HB-OS01 (2.5, 5.0, 7.5, 10.0 μg/mL) for 72 hours and were treated with 10.0 μg/mL. NBM-HB-OS01 for 1, 2, 3, and 4 hours. Human breast cancer MCF-7 cells were treated with 7.5 μg/mL NBM-C-BX-OS01 for 1, 2, 3, and 4 hours.

[6] = tested on: Human colon cancer HT-29 cells; experiment: Inhibition of cancer cell growth; settings: various concentrations, 48 hrs (FIG. 1(b))
[7] = tested on: p21 mRNA in Rat C6 glioma cells; experiment: RT-PCR of cell-cycle related mRNA expression; settings: 48 hrs, GAPDH internal control (FIG. 1(d))
Description: The cell-cycle related mRNA expression was examined by RT-PCR. The total RNA was isolated from the treated Rat C6 glioma cells using the RNeasy Mini Kit (Qiagen) as described by the manufacturer. The cDNA was produced from 500 ng of total RNA using ReverTra-Plus™ (TOYOBO).

[8] = tested on: Human lung cancer A549 cells; experiment: Cell cycle analysis by flow cytometry (propidium iodide); settings: A549 cells, 2.5, 5.0, 7.5, 10.0 μg/mL, 24 hours (FIG. 1(c))
Description: Human lung cancer A549 cells, Human glioma Hs683 cells and Human glioblastoma 05-MG cells were seeded 1×10^6 cells in a 100-mm dish. After 24 hours of incubation in DMEM+10% BSA, Human lung cancer A549 cells were treated with NBM-HB-OS01 (2.5, 5.0, 7.5, 10.0 μg/mL) for 24 hours and were treated with NBM-C-BCX-OS01 (2.5, 5.0, 7.5 μg/mL) and NBM-C-BMX-OS01 (2.5, 5, 7.5 μg/mL) for 72 hours. Human glioblastoma 05-MG cells were treated with NBM-C-BCX-OS01 (1.0, 2.0, 4.0 μg/mL) and NBM-C-BMX-OS01 (1.0, 2.0, 4.0 μg/mL) for 72 hours. Human glioma Hs683 cells were treated with NBM-C-BCX-OS01 (1.0, 2.0, 4.0 μg/mL). For cell cycle analysis, cells were fixed in 80% ethanol for 1 hour (or overnight) at −20° C. and then incubated with 2 μg/mL RNase A for 30 minutes at 37° C. Cells were stained with propidium iodide ([…] PI) in PBS and analyzed using a Becton Dickinson flow cytometer, BD FACScan and CellQuest acquisition and analysis programs. […] Human glioma Hs683 cells were treated with NBM-C-BCX-OS01 (1.0, 2.0, 4.0 μg/mL) for 72 hours.

[9] = tested on: Gelsolin in Human breast cancer MCF-7 cells; experiment: Immunostaining of HDAC associated proteins; settings: 10 μg/mL, 24 hrs (FIG. 1(g))
Description: as §3

[10] = tested on: acetyl-Histone H3, acetyl-Histone H4, acetyl-tubulin, p21 in Rat C6 glioma cells; experiment: Immunoblotting of hyperacetylated histone, tubulin and p21
Description: as §4

[11] = various concentrations, 48 hrs (FIG. 1(a), 2(a))
[12] = Rat C6 glioma cells, 2.5, 5.0, 7.5, 10.0 μg/mL, 72 hrs, western blotting (FIG. 1(e))

SMILES: COc1ccc(/C=C/C(=O)Nc2ccccc2N)c(OCc2ccccc2)c1CC=C(C)C [NBM-C-BA-OS01, (E)-2-Benzoxy-3-prenyl-4-methoxy-N-(2-aminophenyl) cinamide]
- changes in morphology ([1]; MCF-7 cells, 2.5, 5.0, 7.5 μg/mL, 72 hrs (FIG. 3(a))): exhibited changes in morphology
- inhibition of cell growth (Rat C6 glioma cells; 7.5 μg/mL, 48 hrs (FIG. 4)): inhibited the Rat C6 glioma cell growth
- changes in morphology (Rat C6 glioma cells; Rat C6 glioma cells, 2.5, 5.0, 7.5 μg/mL, 72 hrs (FIG. 3(b))): exhibited changes in morphology
- inhibition of cell growth (Rat C6 glioma cells; 24 hrs, NBM-C-BA-OS01 5 μg/mL, others 2.5, 5.0 μg/mL (FIG. 5(a))): inhibited the cell growth
- acetylation of Histone H3 protein [2]: Hyperacetylation of Histone H3 protein was detected; also recorded: could induce the HDAC associated proteins expression

SMILES: COc1ccc(/C=C\C(=O)NO)c(OCc2ccccc2)c1CC=C(C)C [NBM-C-BX-OS01, (Z)-2-Benzoxy-3-prenyl-4-methoxy-N-hydroxy-cinamide]
- inhibition of cell growth ([1]; MCF-7 cells, various concentrations, 24 hrs (FIG. 2(b))): Inhibition of cancer cells growth was shown; also recorded: arrested the cell growth
- inhibition of cell growth (Rat C6 glioma cells; [11]): Inhibition of cancer cells growth was shown; also recorded: arrested the cell growth
- cell growth inhibition ([3]; 72 hrs, NBM-C-BX-OS01 7.5, others 2.5, 5.0, 7.5 μg/mL (FIG. 5(b))): induced A549 cells growth inhibition in a dose-dependent manner; also recorded: induced A549 cell growth inhibition in dose-dependent amounts
- inhibition of cell growth ([3]; various concentrations, 48 hrs (FIG. 2(c))): Inhibition of cancer cells growth was shown; also recorded: arrested the cell growth
- acetylated tubulin protein expression [4]: Overexpression of acetylated tubulin protein was observed; also recorded: could induce the HDAC associated proteins expression
- expression of acetylated H3 [5]: increased in a dose-dependent manner
- expression of acetylated H4 [5]: increased in a dose-dependent manner
- expression of acetylated-tubulin [5]: increased in a dose-dependent manner
- expression of p21 [5]: increased in a dose-dependent manner

SMILES: COc1ccc(/C=C\C(=O)OCc2ccccc2)c(OCc2ccccc2)c1CCC(C)(C)O [NBM-HB-OS01]
- inhibition of cell growth (Rat C6 glioma cells; [11]): Inhibition of cancer cell growth
- inhibition of cell growth (Rat C6 glioma cells; various concentrations, 48 hrs (FIG. 1(a), 2(a)), listed as NBM-HB-HB-OS01): Inhibition of cancer cells was shown
- inhibition of cell growth [6]: Inhibition of cancer cell growth
- inhibition of cell growth ([6]; listed as NBM-HB-HB-OS01): Inhibition of cancer cells was shown
- p21 mRNA (gene) expression [7]: increased p21 gene expression; also recorded: induced p21 mRNA expression
- cell cycle arrest phase [8]: arrested the human lung cancer A549 cells on the G0/G1 phase in a dose-dependent manner
- Gelsolin protein expression [9]: Overexpression of Gelsolin protein was observed; also recorded: could induce the HDAC associated proteins expression
- accumulation of p21 ([10]; Rat C6 glioma cells, 10 μg/mL for 1, 2, 3 and 4 hrs (FIG. 1(f))): seen in a dose-dependent manner
- accumulation of hyperacetylated histone H3 [10, 12]: detected in a dose-dependent manner
- accumulation of hyperacetylated histone H4 [10, 12]: detected in a dose-dependent manner
- accumulation of p21 [10, 12]: detected in a dose-dependent manner
